From paper PMC4110944, “Probing SH2-domains using Inhibitor Affinity Purification (IAP)” (Proteome Science, 2014)
pIC50: −log10 of the molar value.

How the values were obtained:
regulatory PI3K subunits = assay: Dose response competition pull-down with free compound 1 against immobilized probe 1 in Colo205 lysate; type: binding, human; conditions: Colo205 lysates, competition with immobilized probe 1; read-out: IC50 values for the captured regulatory PI3K subunits
Method: (§1) A competitive binding experiment was performed to validate the results obtained under pervanadate-depletion conditions (Additional file 4). Dose response pull-down experiments were accomplished in Colo205 lysates with increasing concentrations of the free compound 1 that competes with the immobilized probe 1 for SH2 domain binding (Additional file 5). […] Additionally, these findings underscore the results of the pervanadate depletion experiments that indicate that the regulatory PI3 kinase subunits specifically interact with probe 1 via an SH2 domain. The regulatory PI3K subunits PI3KR1 and PI3KR2 contain a C-terminal and an N-terminal SH2 domain. The real IC50 values are likely smaller than the measured values for PI3KR1 and PI3KR2, since it is impossible to distinguish whether one of the two domains or both simultaneously interact with equal affinity with probe 1[35].
(§2) SH2 probe pulldowns were performed as described previously. […]

SH2 proteins = assay: Dose response competition pull-down in Colo205 lysate; type: binding, human; conditions: increasing free compound 1
Method: as §1, §2

tubulin beta chain (TBB) = target: T1, tubulin beta chain (TBB) (Homo sapiens, UniProt P07437); assay: as above; type: binding; conditions: increasing free compound 1
T1 construct: Dose response pull-down experiments were accomplished in Colo205 lysates; endogenous in cells; host or cells: Colo205 cell lysate
Method: as §1, §2

PIK3R1 = target: T2, PIK3R1 (Homo sapiens, UniProt P27986); assay: Dose response competition pull-down with free compound 1 against immobilized probe 1 in Colo205 lysate; type: binding; conditions: Colo205 cell lysate, free compound 1 competing with immobilized probe 1
T2 construct: Dose response pull-down experiments were accomplished in Colo205 lysates; endogenous in cells; host or cells: Colo205 cell lysate
Method: as §1
(§3) Figure 5 Dose-response curves. Pulldown experiments were conducted using probe 1 with Colo205 cell lysate and increasing concentrations of the free compound 1.
as §2
(§4) Raw MS data were processed by MaxQuant (v1.4.0.5) for peak detection and quantification […]

PIK3R2 = target: T3, PIK3R2 (Homo sapiens, UniProt O00459); assay: as above; type: binding; conditions: Colo205 cell lysate, free compound 1 competing with immobilized probe 1
T3 construct: Dose response pull-down experiments were accomplished in Colo205 lysates; endogenous in cells; host or cells: Colo205 cell lysate
Method: as §1, §3, §2, §4

In the case of `CCCCCN(CCOCCOCCN)C(=O)[C@H](CCC(=O)O)NC(=O)[C@H](Cc1ccc(C(F)(F)P(=O)(O)O)cc1)NC(C)=O` [probe 1], the pIC50 (regulatory PI3K subunits) was 4.64 to 5.00, the “dose dependence of captured SH2 proteins in the competition experiment” value (SH2 proteins) was “dose dependent decrease” and the “dose dependence of tubulin beta chain (TBB) in the competition experiment” value (tubulin beta chain (TBB)) was “do not show dose dependent decrease”. The pIC50 (PIK3R1) was 4.99 and the pIC50 (PIK3R2) was 4.65.
